# Data taken from paper PMC12675575, “A BRET biosensor for measuring uncompetitive engagement of PRMT5 complexes in cells” (Nature Communications, 2025).
# Several values for one entry are separate records, joined by “and”; a condition that tells them apart may be missing. Equal entries are not always repeated. Where two headings read alike, the source gives them in different places.
# Legend:
# [1] = biological target: T1, NL-PRMT5 with WDR77 (Homo sapiens, UniProt O14744); assay: MRTX1719 kinetic washout (residence time) NanoBRET experiment in HEK293 cells; assay type: cell-based; settings: 100uM MTA
# T1 construct: host or cells: HEK293
# T1 sequence (O14744 whole entry): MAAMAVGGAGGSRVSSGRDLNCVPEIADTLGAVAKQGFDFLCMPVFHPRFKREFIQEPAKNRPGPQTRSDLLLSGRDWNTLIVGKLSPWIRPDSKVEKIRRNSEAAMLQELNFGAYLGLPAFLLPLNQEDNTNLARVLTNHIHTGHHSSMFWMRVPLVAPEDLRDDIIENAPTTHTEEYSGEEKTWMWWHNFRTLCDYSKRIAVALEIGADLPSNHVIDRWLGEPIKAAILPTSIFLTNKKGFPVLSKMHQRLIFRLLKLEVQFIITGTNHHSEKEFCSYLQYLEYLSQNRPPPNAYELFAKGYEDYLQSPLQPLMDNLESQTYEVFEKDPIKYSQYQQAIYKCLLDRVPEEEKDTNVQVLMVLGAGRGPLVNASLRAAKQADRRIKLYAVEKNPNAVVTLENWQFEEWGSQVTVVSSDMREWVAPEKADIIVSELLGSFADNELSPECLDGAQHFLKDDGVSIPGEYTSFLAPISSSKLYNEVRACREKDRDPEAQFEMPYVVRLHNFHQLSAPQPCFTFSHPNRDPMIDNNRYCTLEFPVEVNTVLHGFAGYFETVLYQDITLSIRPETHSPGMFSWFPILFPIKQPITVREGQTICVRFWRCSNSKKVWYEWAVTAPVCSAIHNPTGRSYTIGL
# T1 sequence (Q9BQA1 whole entry partner): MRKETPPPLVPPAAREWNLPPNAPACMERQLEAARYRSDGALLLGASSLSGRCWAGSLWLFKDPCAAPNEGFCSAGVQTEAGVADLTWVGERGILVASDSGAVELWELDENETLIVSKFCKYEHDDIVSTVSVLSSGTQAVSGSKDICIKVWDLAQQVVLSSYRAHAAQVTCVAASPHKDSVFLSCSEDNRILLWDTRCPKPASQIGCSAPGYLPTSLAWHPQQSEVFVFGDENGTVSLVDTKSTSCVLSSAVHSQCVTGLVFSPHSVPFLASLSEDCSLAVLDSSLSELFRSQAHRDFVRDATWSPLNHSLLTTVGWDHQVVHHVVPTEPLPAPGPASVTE
# Procedure: On the next day, cells were resuspended in a 15 mL falcon tube and adjusted to 2 × 10^5 cells/mL in assay medium (OptiMEM with 1% FBS). […] After incubation, cells were centrifuged at 300 × g for 5 min, medium was aspirated and cells were washed with pre-warmed assay medium, centrifuged again and adjusted to 2 × 10^5 cells/mL. For the full occupancy control, MTA and compound concentrations were maintained. 34 μL of cells were added per well in a seeded into 96-well non-binding surface-treated plates (Corning), followed by addition of 36 μL of Complete 2x Substrate (prepared by combining Nano-Glo Substrate and Extracellular NanoLuc Inhibitor in Opti-MEM, according to the manufacturer’s protocol (Promega)). Then, 2 μL of ETP CBH-002 at a final concentration of 30 nM were added before immediate readout at the PheraSTAR FSX for 6 h. Readout and analysis were conducted as described earlier.
# [2] = biological target: NLuc-PRMT5 (Homo sapiens, UniProt O14744); assay: BRET probe sensitivity to exogenous MTA in live HEK293 cells expressing NLuc-PRMT5; assay type: cell-based; set-up: host or cells: HEK293 (live cells; digitonin lysate for the SAM titration); settings: for remaining activity at […] / remaining activity at 1000 µM: Log([MTA]), room temperature, read-out: Normalized BRET probe signal; for remaining activity at 1000 µM: uM 3.00
# NLuc-PRMT5, sequence (O14744 whole entry): as the sequence (O14744 whole entry) above
# NLuc-PRMT5, sequence (Q9BQA1 whole entry partner): as the sequence (Q9BQA1 whole entry partner) above
# Procedure: To measure BRET probe sensitivity to both MAT2A inhibition and exogenous MTA in live cells, HEK293 cells were pre-treated with 30 nM CBH-002 and incubated at 37 °C and 5% CO2 for 2 h. For MAT2A inhibition, a 20 µM, 3-fold, 11 pt titration series of Compound A (Selleckchem) was added to wells. Cells were incubated either at 37 °C (Fig. 3D) or room temperature (Fig. S3D). Data were normalized using Eq. (2), where BRETMIN = instrument background (no CBH-002), and BRETMAX = 2 h vehicle treatment, and fit curves were generated using Eq. (1). For MTA sensitivity cells were treated with a 1 mM, 11 pt, 2-fold series of MTA (Sigma) and cells were incubated at room temperature for 2 h, reading in 15 min intervals. Data were normalized using Eq. (2), where BRETMIN = instrument background (no CBH-002), and BRETMAX = 2 h + vehicle treatment. Data were fit with Eq. (1).
structure (smiles),measurement,setting,value
"CSC[C@H]1O[C@@H](n2cnc3c(N)ncnc32)[C@H](O)[C@@H]1O [MTA, methylthioadenosine]","BRET, Figure S5I",[1]; time 0 min,0.1105 and 0.1241 and 0.1192 and 0.1078 and 0.1088 and 0.1195 and 0.1138 and 0.1151
same,"BRET, Figure S5I",[1]; time 6 min,0.3119 and 0.3036 and 0.3616 and 0.2837 and 0.2843 and 0.315 and 0.3325 and 0.3197
same,"BRET, Figure S5I",[1]; time 12 min,0.5293 and 0.4857 and 0.5913 and 0.4586 and 0.456 and 0.5044 and 0.5405 and 0.5123
same,"BRET, Figure S5I",[1]; time 18 min,0.7285 and 0.6611 and 0.7995 and 0.6306 and 0.6158 and 0.6735 and 0.7234 and 0.6889
same,"BRET, Figure S5I",[1]; time 24 min,0.8959 and 0.8098 and 0.9637 and 0.7786 and 0.7595 and 0.8227 and 0.869 and 0.8404
same,"BRET, Figure S5I",[1]; time 30 min,1.03 and 0.937 and 1.09 and 0.9086 and 0.8803 and 0.9486 and 0.9887 and 0.9612
same,"BRET, Figure S5I",[1]; time 36 min,1.134 and 1.042 and 1.191 and 1.015 and 0.9796 and 1.049 and 1.086 and 1.061
same,"BRET, Figure S5I",[1]; time 42 min,1.201 and 1.125 and 1.257 and 1.0947 and 1.057 and 1.127 and 1.168 and 1.1428
same,"BRET, Figure S5I",[1]; time 48 min,1.264 and 1.1938 and 1.301 and 1.164 and 1.1261 and 1.183 and 1.221 and 1.192
same,"BRET, Figure S5I",[1]; time 54 min,1.305 and 1.245 and 1.342 and 1.215 and 1.178 and 1.2272 and 1.267 and 1.255
same,"BRET, Figure S5I",[1]; time 60 min,1.34 and 1.2815 and 1.366 and 1.252 and 1.226 and 1.27 and 1.304 and 1.278
same,"BRET, Figure S5I",[1]; time 66 min,1.37 and 1.322 (2×) and 1.406 and 1.285 and 1.248 and 1.298 and 1.329
same,"BRET, Figure S5I",[1]; time 72 min,1.398 and 1.341 and 1.428 and 1.319
same,remaining activity at […],"[2]; HEK293, 0.5 h, uM 0.29, Time (min) 30",98.1%
same,remaining activity at […],"[2]; HEK293, 0.5 h, uM 0.59, Time (min) 30",97.9%
same,remaining activity at […],"[2]; HEK293, 0.5 h, uM 0.89, Time (min) 30",99.1%
same,remaining activity at […],"[2]; HEK293, 0.5 h, uM 1.19, Time (min) 30",97.4%
same,remaining activity at […],"[2]; HEK293, 0.5 h, uM 1.49, Time (min) 30",95.2%
same,remaining activity at […],"[2]; HEK293, 0.5 h, uM 1.80, Time (min) 30",93%
same,remaining activity at […],"[2]; HEK293, 0.5 h, uM 2.10, Time (min) 30",90.2%
same,remaining activity at […],"[2]; HEK293, 0.5 h, uM 2.40, Time (min) 30",87.8%
same,remaining activity at […],"[2]; HEK293, 0.5 h, uM 2.70, Time (min) 30",86.4%
same,remaining activity at 1000 µM,"[2]; HEK293, 0.5 h, Time (min) 30",85.4%
same,remaining activity at […],"[2]; HEK293, 1 h, uM 0.29, Time (min) 60",99.2%
same,remaining activity at […],"[2]; HEK293, 1 h, uM 0.59, Time (min) 60",99.7%
same,remaining activity at […],"[2]; HEK293, 1 h, uM 0.89, Time (min) 60",98.1%
same,remaining activity at […],"[2]; HEK293, 1 h, uM 1.19, Time (min) 60",96.8%
same,remaining activity at […],"[2]; HEK293, 1 h, uM 1.49, Time (min) 60",94.8%
same,remaining activity at […],"[2]; HEK293, 1 h, uM 1.80, Time (min) 60",91.1%
same,remaining activity at […],"[2]; HEK293, 1 h, uM 2.10, Time (min) 60",87.7%
same,remaining activity at […],"[2]; HEK293, 1 h, uM 2.40, Time (min) 60",84.6%
same,remaining activity at […],"[2]; HEK293, 1 h, uM 2.70, Time (min) 60",79.9%
same,remaining activity at 1000 µM,"[2]; HEK293, 1 h, Time (min) 60",78.1%
same,remaining activity at […],"[2]; HEK293, 2 h, uM 0.29, Time (min) 120",98.3%
same,remaining activity at […],"[2]; HEK293, 2 h, uM 0.59, Time (min) 120",98.5%
same,remaining activity at […],"[2]; HEK293, 2 h, uM 0.89, Time (min) 120",97.2%
same,remaining activity at […],"[2]; HEK293, 2 h, uM 1.19, Time (min) 120",96%
same,remaining activity at […],"[2]; HEK293, 2 h, uM 1.49, Time (min) 120",93.7%
same,remaining activity at […],"[2]; HEK293, 2 h, uM 1.80, Time (min) 120",90%
same,remaining activity at […],"[2]; HEK293, 2 h, uM 2.10, Time (min) 120",85.1%
same,remaining activity at […],"[2]; HEK293, 2 h, uM 2.40, Time (min) 120",81.7%
same,remaining activity at […],"[2]; HEK293, 2 h, uM 2.70, Time (min) 120",75.7%
same,remaining activity at 1000 µM,"[2]; HEK293, 2 h, Time (min) 120",72.8%
same,Time to plateau of BRET inhibition,"[2]; live HEK293, room temperature",~ 2 h
